This note sets out measurements from ChEMBL document CHEMBL1126772, “Activated ketone based inhibitors of human renin” (J Med Chem, 1993).

Square brackets hold non-standard residues; d marks the D form. Peptide text beside a SMILES is read from it. * marks the point of attachment. ξ: configuration not given here. ξCha = NC(CC1CCCCC1)C(=O)O; Boc = CC(C)(C)OC(=O)*; CF3 = FC(F)(F)*

Chain of Pepsin A (P00791 whole entry): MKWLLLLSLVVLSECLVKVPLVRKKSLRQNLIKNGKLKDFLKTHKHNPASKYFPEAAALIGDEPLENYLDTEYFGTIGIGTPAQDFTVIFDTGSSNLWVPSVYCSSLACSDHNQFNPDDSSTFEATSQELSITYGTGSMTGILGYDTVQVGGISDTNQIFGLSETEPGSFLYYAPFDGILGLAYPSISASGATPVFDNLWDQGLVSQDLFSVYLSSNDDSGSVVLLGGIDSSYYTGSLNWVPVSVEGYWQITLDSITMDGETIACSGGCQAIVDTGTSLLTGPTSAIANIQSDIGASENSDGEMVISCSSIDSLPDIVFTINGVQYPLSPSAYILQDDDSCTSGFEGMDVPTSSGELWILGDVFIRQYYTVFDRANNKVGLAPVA

In the first experiment the target is T1, Cathepsin D (Bos taurus, UniProt P80209).
T1 sequence (P80209 whole entry): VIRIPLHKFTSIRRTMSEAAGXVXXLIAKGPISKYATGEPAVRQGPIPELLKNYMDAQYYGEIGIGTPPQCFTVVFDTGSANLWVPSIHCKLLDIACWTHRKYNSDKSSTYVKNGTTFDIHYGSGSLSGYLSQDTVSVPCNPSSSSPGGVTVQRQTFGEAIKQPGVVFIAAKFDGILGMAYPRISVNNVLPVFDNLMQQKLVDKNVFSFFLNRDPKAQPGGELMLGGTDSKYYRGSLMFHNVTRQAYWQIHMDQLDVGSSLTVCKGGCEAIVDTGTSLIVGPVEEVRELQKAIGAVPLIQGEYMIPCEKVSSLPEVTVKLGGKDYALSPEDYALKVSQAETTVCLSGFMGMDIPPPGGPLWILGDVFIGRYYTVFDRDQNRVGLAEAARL
Put plainly: In vitro inhibitory activity against bovine cathepsin D. As to conditions: read-out: I50.
For `CCOC(=O)C(=O)C(CC1CCCCC1)NC(=O)[C@H](CC(C)C)NC(=O)[C@H](Cc1ccccc1)NC(=O)OC(C)(C)C` (stereo partly drawn), the IC50 was found to be 1300 nM.

The next experiment concerns the target Pepsin A (Sus scrofa, UniProt P00791). In words: In vitro inhibitory activity against aspartic proteinases pepsin from porcine. Conditions: read-out: I50.
Consider `CCOC(=O)C(=O)C(CC1CCCCC1)NC(=O)[C@H](CC(C)C)NC(=O)[C@H](Cc1ccccc1)NC(=O)OC(C)(C)C` (stereo partly drawn), for which the IC50 is 2700 nM.

In the next experiment the target is T2, Renin (Homo sapiens, UniProt P00797).
T2 sequence (P00797 whole entry): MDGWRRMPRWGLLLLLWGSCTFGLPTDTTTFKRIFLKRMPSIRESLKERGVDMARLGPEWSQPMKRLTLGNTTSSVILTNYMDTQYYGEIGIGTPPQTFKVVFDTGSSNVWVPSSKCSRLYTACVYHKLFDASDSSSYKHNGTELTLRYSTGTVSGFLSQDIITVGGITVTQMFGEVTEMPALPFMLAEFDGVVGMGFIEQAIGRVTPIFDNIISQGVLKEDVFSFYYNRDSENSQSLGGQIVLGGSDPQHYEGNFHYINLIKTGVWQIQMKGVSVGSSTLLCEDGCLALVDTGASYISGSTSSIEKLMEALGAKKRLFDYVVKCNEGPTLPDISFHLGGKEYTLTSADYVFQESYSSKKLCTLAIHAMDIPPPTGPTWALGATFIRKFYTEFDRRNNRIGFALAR
Put plainly: In vitro inhibitory potency against human kidney renin. Format: tissue-based. As to conditions: read-out: I50.
Consider `CCCC(=O)[C@H](O)[C@H](CC1CCCCC1)NC(=O)[C@H](CC(C)C)NC(=O)[C@H](Cc1ccccc1)NC(=O)OC(C)(C)C`, for which the IC50 amounted to 23 nM.
The same measure, in the same setting: the figure for `CC(C)C[C@H](NC(=O)[C@H](Cc1ccccc1)NC(=O)OC(C)(C)C)C(=O)NC(CC1CCCCC1)C(=O)C(=O)O` (stereo partly drawn) is 64000 nM; for `CCOC(=O)C(=O)[C@H](CC1CCCCC1)NC(=O)[C@H](CC(C)C)NC(=O)[C@@H](CC(=O)N1CCOCC1)Cc1ccccc1` it is 4.1 nM.
On the same count and under the same terms, the value for `CC(C)C[C@H](NC(=O)[C@H](Cc1ccccc1)NC(=O)OC(C)(C)C)C(=O)NC(CC1CCCCC1)C(=O)C(F)(F)F` (stereo partly drawn) (Boc-Phe-Leu-[ξCha]-CF3) was 250 nM.
In the case of `CC(C)C[C@H](NC(=O)[C@H](Cc1ccccc1)NC(=O)OC(C)(C)C)C(=O)N[C@@H](CC1CCCCC1)C(C)O` (stereo partly drawn), the IC50 was found to be 3200 nM.
For `CC(C)C[C@H](NC(=O)[C@H](Cc1ccccc1)NC(=O)OC(C)(C)C)C(=O)NC(CC1CCCCC1)C(O)C(F)(F)F` (stereo partly drawn), the IC50 was found to be 4000 nM.
On the same count and under the same terms, the figure for `CCOC(=O)C(=O)C(CC1CCCCC1)NC(=O)[C@H](CC(C)C)NC(=O)[C@H](Cc1ccccc1)NC(=O)OC(C)(C)C` (stereo partly drawn) is 15 nM; for `CCCC(=O)C(=O)[C@H](CC1CCCCC1)NC(=O)[C@H](CC(C)C)NC(=O)[C@H](Cc1ccccc1)NC(=O)OC(C)(C)C` it is 52 nM; for `CCCC(=O)C(=O)[C@H](CC1CCCCC1)NC(=O)[C@H](CC(C)C)NC(=O)[C@H](Cc1ccccc1)NC(=O)C1CCCC1` it is 28 nM.
On the same count and under the same terms, the value for `CCCC(=O)[C@H](O)[C@H](CC1CCCCC1)NC(=O)[C@H](CC(C)C)NC(=O)[C@H](Cc1ccccc1)NC(=O)C1CCCC1` was 14 nM; that for `CCOC(=O)[C@@H](O)[C@H](CC1CCCCC1)NC(=O)[C@H](CC(C)C)NC(=O)[C@H](Cc1ccccc1)NC(=O)OC(C)(C)C` was 110 nM; that for `CCOC(=O)C(=O)C(CC1CCCCC1)NC(=O)[C@H](CC(C)C)NC(=O)OCc1ccccc1` (stereo partly drawn) was 52000 nM.
The same measure, in the same setting: the value for `CCOC(=O)[C@H](O)[C@H](CC1CCCCC1)NC(=O)[C@H](CC(C)C)NC(=O)[C@H](Cc1ccccc1)NC(=O)OC(C)(C)C` was 5.3 nM.
For the compound `CCOC(=O)[C@H](O)[C@H](CC1CCCCC1)NC(=O)[C@H](CC(C)C)NC(=O)[C@@H](CC(=O)N1CCOCC1)Cc1ccccc1`, the IC50 was found to be 4.7 nM.
Still for that read-out and setting: the figure for `CCCC(=O)[C@H](O)[C@H](CC1CCCCC1)NC(=O)[C@H](Cc1c[nH]cn1)NC(=O)OC(C)(C)C` is 420000 nM.
Same read-out and setting: the figure for `CCCC1([C@H](O)[C@H](CC2CCCCC2)NC(=O)[C@H](CC(C)C)NC(=O)[C@H](Cc2ccccc2)NC(=O)OC(C)(C)C)SCCCS1` is 2200 nM.
